Consider three molecules from article PMC6058718, “Doxorubicin conjugated with a trastuzumab epitope and an MMP-2 sensitive peptide linker for the treatment of HER2-positive breast cancer” (Drug Delivery, 2018).

The subject of series [1] is SKBR3 cells. The series can be described thus: TUNEL assay, SKBR3 cells. The format is cell-based, human. Conditions: 24 h treatment, n = 3. The method, then:
(§1) Transferase-mediated nick-end labeling assay was carried out using the DeadEnd Fluorometric TUNEL system kit (Promega, Madison, WI, USA). […] Images were acquired at room temperature with an inverted fluorescence microscope (Leica, DMI3000B, Wetzlar, Germany).

Series [2] relates to SKBR3 cells. Nature of the series: MTT cytotoxicity assay, SKBR3 cells. In kind it is cell-based, human. The method, then: (§2) The cytotoxicity of MAHNP-DOX was determined using MTT test. Free DOX was used as positive control, and the cells treated with conditioned medium only were considered as negative control. BT474 and SKBR3 cells in exponential growth were seeded in a 96-well plate and incubated for 24 h at 37 °C. Then, a series of dilutions of free DOX and MAHNP-DOX at equivalent concentration were prepared with the conditioned medium and incubated for another 48 h. After an addition of MTT solution (5 mg/ml in PBS) to each well, the cells were incubated for 4 h and lysed in DMSO. Absorbance was determined at 490 nm using an EL ×800 absorbance microplate reader (Biotek, Winooski, VT, USA). The IC50 values were calculated from the linear regression of the dose–log response curves using GraphPad Prism 6 software (GraphPad Software, San Diego, CA, USA).
(§3) To further confirm the dependence of cytotoxicity on MMP-2 activity, NIH-3T3 cells were pre-incubated with 10 μM MMP-2 inhibitor I in serum-free medium for 24 h, and the medium was also collected termed as treated conditioned medium. Following the procedure above, the cytotoxicity of MAHNP-DOX was also determined using this medium.

The test system of series [3] is BT474 cells. Nature of the series: MTT cytotoxicity assay, BT474 cells. The format is cell-based, human. The method, then: as §2, §3
In series [4] the test system is BT474 cells. Nature of the series: TUNEL assay, BT474 cells. In kind it is cell-based, human. The settings on record: 24 h treatment, n = 3. The method, then: as §1
The nature of series [5]: Pharmacokinetic profile in plasma of mice. Conditions: intravenous injection, blood 0.083-24 h post injection, LC-MS/MS, n = 3. The method, then: (§4) When the tumor size reached a volume of about 50 mm^3, the mice were randomly divided into three groups (each group consisted of 6 mice) for the treatment with 5 mg DOX equivalent/kg of either free DOX or MAHNP-DOX once every seven days for three times. Saline was used as negative control. The animals’ weight and tumor dimensions were measured every five days. Tumor volume was calculated using an equation: TV =1/2 × a × b^2, where a is the largest diameter and b is the smallest diameter. Each animal was tagged in the ear and followed individually throughout the experiment. For in vivo imaging study, the mice were intravenously injected through the caudal vein by 5 mg DOX equivalent/kg of free DOX and MAHNP-DOX, images were taken on IVIS LuminaXR imaging system (Perkin Elmer, San Diego, CA, USA) at 4 h post injection. Tumors and organ samples including heart, liver, spleen, kidneys and lungs were carefully removed and stored in liquid nitrogen. To assess the pharmacokinetic profile of the drugs, free DOX and MAHNP-DOX were injected intravenously into the mice, respectively. Blood samples were collected at 0.083, 0.25, 0.5, 1, 2, 4, 8, 12 and 24 h post injection.

For a further series, the system named is BT474 xenografts. Conditions: 5 mg DOX equivalent/kg once every seven days for three times, nude mice with BT474 xenografts. The method, then: Eighteen athymic nude mice (Balb/c nu/nu, females) were used. All animal experiments were carried out in accordance with guidelines evaluated and approved by the ethics committee of Nanjing Medical University. BT474 cells were first collected in a concentration of 1 × 10^7/mL and orthotopically injected into the mammary fat pad area of each mouse with 0.1 mL PBS/mouse.
as §4

The target in the next series is T1, MMP-2 (Mus musculus, UniProt P33434).
T1 construct: 4 mL of the medium containing active MMP-2 (i.e. conditioned medium) was collected and concentrated; endogenous in cells; host or cells: NIH-3T3 fibroblasts; serum-free conditioned medium concentrated with a 10 K centrifugal filter
The series can be described thus: Enzymatic cleavage of MAHNP-DOX by MMP-2 in NIH-3T3 conditioned medium. The format is in vitro ADME. The settings on record: 5 μM MAHNP-DOX in concentrated conditioned medium from NIH-3T3 cells containing active MMP-2, 37 °C, 2 h of incubation, HPLC / LC-MS/MS. The method, then: NIH-3T3 cells that can secrete active MMP-2 (Figure S1) were cultured in serum-free medium for 24 h. Then, 4 mL of the medium containing active MMP-2 (i.e. conditioned medium) was collected and concentrated to 500 μL using Amicon Ultra-4 10 K centrifugal filter devices (Millipore, Bedford, MA, USA) (Aye et al., [2004]). Dilution of MAHNP-DOX at a concentration of 5 μM was prepared with the concentrated conditioned medium and incubated at 37 °C. Aliquots were removed at 1 h and 2 h and then analyzed by LC–MS/MS (van Duijnhoven et al., [2011]). The analysis was performed on XBridge™ C18 column (5 μm, 4.6 × 250 mm; Waters, Milford, MA, USA) at room temperature. The flow rate of HPLC was 0.3 mL/min with a mobile phase consisted of solvent A (water with 0.1% FA) and solvent B (ACN). The gradient was as follows: B 0 min (10%) → 15 min (90%) → 20 min (90%) → 25 min (10%).
The sensitivity of MAHNP-DOX to MMP-2 was studied using HPLC. To date, there has been substantial evidence indicating stronger signals for MMP-2 in stromal cells compared to cancer cells, while stromal fibroblasts interact with cancer cells by secreting and activating MMP-2 (Saad et al., [2002]; Hassona et al., [2014]). […] Thus, the peaks for MAHNP-DOX and one product after cleavage of GLPG-DOX were monitored. […]

Series [6] in a line: Biodistribution in BT474 tumor-bearing mice by fluorescent imaging and HPLC. In kind it is in vivo. The settings on record: 4 h after intravenous injection, 5 mg DOX equivalent/kg. An excerpt:
Saline was used as negative control.
Daunorubicin (DAU) was used as internal standard.

For series [7], the target named is human epidermal growth factor receptor family member HER2 (human (endogenous in BT474 and SKBR3)) (UniProt P04626).
Setting [8] is: 48 h, in conditioned medium, n = 3, read-out: IC50.
Where [9] appears, read: conditioned medium from NIH-3T3 cells pretreated with 10 μM MMP-2 inhibitor I, n = 3, read-out: IC50 with MMP-2 inhibitor pretreatment.

Read-outs that look alike come from different tables or passages of the source. Where a SMILES comes first, the peptide text is derived from it. Bridges are numbered along the chain shown (N, C = ends). Where no end group is shown, it is not given here. The star is where a group is joined. Glutaryl(5-(14-O-Dox)) = COc1cccc2c1C(=O)c1c(O)c3c(c(O)c1C2=O)C[C@@](O)(C(=O)COC(=O)CCCC(=O)*)C[C@@H]3O[C@H]1C[C@H](N)[C@H](O)[C@H](C)O1

T1 sequence (P33434 110-662): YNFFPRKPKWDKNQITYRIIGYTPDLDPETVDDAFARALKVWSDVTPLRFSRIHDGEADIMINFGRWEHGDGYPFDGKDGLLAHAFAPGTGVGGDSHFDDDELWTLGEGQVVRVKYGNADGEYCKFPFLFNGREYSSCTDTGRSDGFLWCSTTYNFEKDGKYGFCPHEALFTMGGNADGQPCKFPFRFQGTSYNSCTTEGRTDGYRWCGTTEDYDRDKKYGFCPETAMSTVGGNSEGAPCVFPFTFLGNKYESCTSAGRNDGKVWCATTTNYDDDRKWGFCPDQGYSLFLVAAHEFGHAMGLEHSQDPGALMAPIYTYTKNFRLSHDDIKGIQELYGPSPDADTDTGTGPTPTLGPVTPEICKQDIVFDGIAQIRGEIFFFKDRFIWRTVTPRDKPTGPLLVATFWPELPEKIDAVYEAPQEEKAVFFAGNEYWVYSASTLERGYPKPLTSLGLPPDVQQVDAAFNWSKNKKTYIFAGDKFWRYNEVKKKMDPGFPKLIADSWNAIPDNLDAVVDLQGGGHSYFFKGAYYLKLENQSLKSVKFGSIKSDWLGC

For orientation: IC50 means the midpoint of a concentration-inhibition curve. Regarding `COc1cccc2c1C(=O)c1c(O)c3c(c(O)c1C2=O)C[C@@](O)(C(=O)CO)C[C@@H]3O[C@H]1C[C@H](N)[C@H](O)[C@H](C)O1.Cl` [free DOX, Doxorubicin hydrochloride], the “percentage of apoptotic cells” value in the series on SKBR3 cells [1] came out at 44.8 ± 2.8%; with BT474 cells [4] it was 34.2 ± 2.1%. Also, the concentration for half-maximal inhibition (IC50) in the series with SKBR3 cells [2] (setting [8]) was 173 ± 19.2 nM; in the series on BT474 cells [3] (setting [8]), 2080 ± 368 nM. Also, the “half-life t1/2 in plasma” value in series [5] amounted to 7.7 ± 1.6 h. Also, the tumor growth inhibition in the series on BT474 xenografts (day 25 after treatment) worked out at 53.4 ± 6.6%. Also, in the series with BT474 xenografts, the “toxicity / body weight change” value is “Toxicity was observed”.
Consider `COc1cccc2c1C(=O)c1c(O)c3c(c(O)c1C2=O)C[C@@](O)(C(=O)COC(=O)CCCC(=O)NCC(=O)N1CCC[C@H]1C(=O)N[C@@H](CC(C)C)C(=O)NCC(=O)N[C@@H](CC(C)C)C(=O)N[C@@H](C)C(=O)NCC(=O)N[C@@H](CC(=O)O)C(=O)N[C@@H](CC(=O)O)C(=O)N[C@@H](Cc1ccc(O)cc1)C(=O)N[C@H]1CSSC[C@@H](C(=O)N[C@@H](Cc2ccc(O)cc2)C(=O)N[C@@H](CCSC)C(=O)N[C@@H](CC(=O)O)C(=O)N[C@H](C(N)=O)C(C)C)NC(=O)[C@H](C)NC(=O)[C@H](Cc2ccc(O)cc2)NC(=O)[C@H](Cc2ccccc2)NC(=O)CNC(=O)[C@H](CC(=O)O)NC1=O)C[C@@H]3O[C@H]1C[C@H](N)[C@H](O)[C@H](C)O1` [MAHNP-DOX] ({Glutaryl(5-(14-O-Dox))}-GPLGLAGDDYCDGFYACYMDV-NH2; disulfide 11-17), for which the efficiency of cleavage with MMP-2 came to 80.8%. In addition, the “drug amount in the tumors compared with free DOX” value in series [6] (fluorescent images confirmed by HPLC, p < .01) was “significantly higher”. Further, in [6] (p < .05), the “drug accumulation in heart, liver, spleen, lung and kidney compared with free DOX” value is on record as “lower”. The IC50 with SKBR3 cells [2] (setting [8]) is 110 ± 12.7 nM; in the series with SKBR3 cells [2] (setting [9]), 147 ± 16.3 nM; with BT474 cells [3] (setting [8]), 747 ± 81.5 nM; in the series on BT474 cells [3] (setting [9]), 1350 ± 154 nM. The “half-life t1/2 in plasma” value in [5] was found to be 17.6 ± 6.4 h. For the same molecule, the “toxicity / body weight change” value with BT474 xenografts is listed as “less weight loss”.
In series [7], YCDGFYACYMDV-NH2 (disulfide 2-8) [anti-HER2 peptide mimetic AHNP] yielded an increase of the cell population in the G1 phase, BT474 cells, 48 h exposure to AHNP (10 μM) alone, flow cytometry of 6.58% and an increase of the cell population in the G1 phase, SKBR3 cells, 48 h exposure to AHNP (10 μM) alone, flow cytometry of 9.95%.
